Common to all, as to assay type: in vivo, human
For assay [1], the system named is tau. Put plainly: Tau PET tracer binding, SUVR with cerebellar cortex as reference, AD patients and NL subjects. To be noted: mean (SD); for GMSUVR (Cerebral GM tracer retention) / WMSUVR (Cerebral WM tracer retention): all subjects of the tracer (AD and NL). The procedure: Subjects come from two sources. 18 subjects (9 AD patients, and 9 healthy elderly study participants) underwent ^18F-THK5351 PET scans from the memory clinic of Tohoku University Hospital. ^18F-AV-1451 scans were obtained from the ADNI (Alzheimer's Disease Neuroimaging Initiative) database (adni.loni.usc.edu). 32 Subjects (20 NL and 12 AD) with ^18F-AV-1451 were selected from ADNI, that were matched to the age and MMSE in participants of the THK5351 group.
(§1) PET imaging was performed using an Eminence STARGATE PET scanner (Shimadzu, Kyoto, Japan). After intravenous injection of ^18F-THK5351 (185 MBq), dynamic PET images were obtained for 60 min. acquisition matrix is 128×128×79 and voxels size is 2×2×2.6 mm. ^18F-THK5351 was synthesized. MRI was performed on all participants. T1 weighted MR images were obtained using a SIGNA 1.5-Tesla machine (General Electric, Milwaukee, Wis.). In T1-weighted MRI, a 3D volumetric acquisition of a T1-weighted gradient echo sequence produced a gapless series of thin axial sections by using a vascular TOF SPGR sequence (echo time/repetition time, 2.4/50 ms; flip angle, 45°; acquisition matrix, 256×256; 1 excitation; field of view, 22 cm; slice thickness, 2.0 mm).
(§2) AV-1451 data were downloaded from ADNI with series description “AV1451 Coreg, Avg, Std Img and Vox Siz, Uniform Resolution”. An intravenous injection of 10 mCi ^18F-AV-1451 (370 MBq) is followed by a saline flush. At approximately 75 minutes following injection, a continuous 30-minute brain scan (6 frames of 5-minute duration) was performed after a CT or transmission scan for attenuation correction. PET imaging was performed using GEMINI TF TOF 16 (Philips Medical Systems), with 6 frames; acquisition matrix 128×128×90; pixel spacing 2×2 mm; slice thickness 2 mm.
Using Free-Surfer (V. 5.1, http://surfer.nmr.mgh.harvard.edu) ROI's were determined for the cerebral gray and white matter, the cerebellar hemisphere gray matter, caudate nuclear, thalamus, ponds and subcortical regions (including frontal, parietal, occipital, medial temporal cortex and lateral temporal lobe). MRI T1 images were coregistered to the mean PET images for each participant by using statistical parametric-mapping software (SPM12; Wellcome Department of Imaging Neuroscience, UCL, London, UK).
Standardized uptake value (SUV) images were obtained by normalizing tissue radioactivity concentration by injected dose and bodyweight. Estimates of tau deposition were determined for THK53151 with the 40-60 min SUV and for AV1451 with for the 80-100 min SUV. Standard SUVR was generated by using cerebellar cortex as reference. To control the variation of SUVR measures in THK5351 and AV1451 PET caused by the off-target binding in reference region, each subject's SUV images were first transferred into standardized SUVP images, using the Peak-alignment method (as described above). In order to compare the regional SUV distribution patterns on group level, the whole brain probability density function (PDFwb) of SUVP were computed for each subject by normalizing the histograms of a subject's SUVP with the total number of intracranial voxels of that subject. Finally, the group average whole brain probability density function (PDFwb) were computed by averaging the individual subjects' PDFwb within 4 compare groups (2 tracers×2 conditions). One important advantage of SUVP over SUVR is that the Peak-alignment method standardized the range of whole brain SUV (marked in FIG. 2) into [−3,3] approximately, regardless of tracer or disease condition, thus allowing universal cutoff for different tracers, while SUVR cutoffs are tracer-dependent (e.g. 1.5 for THK and 1.19 for AV1451). Here, 1.5 is used for SUVP cutoff, representing 1.5 times std from whole brain mode. The positive binding percentage: PBP=(number of positive bring voxels)/(total number of voxels), are computed for both SUVP and SUVR in different brain tissues. […]

Assay [2] relates to tau. As to the kind of experiment: AD-NL classification from tau PET: ROC AUC and AD-NL ratio of PBP. The note with it: temporal lobe.
Assay [3] in a line: Off-target binding observed on PET images. The note with it: observed on PET image. The procedure:
as §1, §2
Standardized uptake value (SUV) images were obtained by normalizing tissue radioactivity concentration by injected dose and bodyweight. Estimates of tau deposition were determined for THK53151 with the 40-60 min SUV and for AV1451 with for the 80-100 min SUV. Standard SUVR was generated by using cerebellar cortex as reference. To control the variation of SUVR measures in THK5351 and AV1451 PET caused by the off-target binding in reference region, each subject's SUV images were first transferred into standardized SUVP images, using the Peak-alignment method (as described above). […]

Assay [4] concerns tau. Put plainly: AD-NL classification from tau PET: ROC AUC and AD-NL ratio of PBP. The note with it: for AD-NL ratio R = (average PBP of AD group)/(average PBP of NL group), SUVP / AD-NL ratio R = (average PBP of AD group)/(average PBP of NL group), SUVR: Table 5, region not stated; for AD-NL ratio (R), SUVP PBP / AD-NL ratio (R), SUVR PBP: temporal lobe. The method, then: In another embodiment, the average PBP of a particular diseased (or abnormal) group (e.g., an AD group) for a particular ROI may be compared to the PBP of a group of normal control (NL) subjects. For example, a ratio (R) of PBP may be obtained by: R=(average PBP of diseased or abnormal group)/(average PBP of NL group)
Standardized uptake value (SUV) images were obtained by normalizing tissue radioactivity concentration by injected dose and bodyweight. Estimates of tau deposition were determined for THK53151 with the 40-60 min SUV and for AV1451 with for the 80-100 min SUV. Standard SUVR was generated by using cerebellar cortex as reference. To control the variation of SUVR measures in THK5351 and AV1451 PET caused by the off-target binding in reference region, each subject's SUV images were first transferred into standardized SUVP images, using the Peak-alignment method (as described above). In order to compare the regional SUV distribution patterns on group level, the whole brain probability density function (PDFwb) of SUVP were computed for each subject by normalizing the histograms of a subject's SUVP with the total number of intracranial voxels of that subject. Finally, the group average whole brain probability density function (PDFwb) were computed by averaging the individual subjects' PDFwb within 4 compare groups (2 tracers×2 conditions). One important advantage of SUVP over SUVR is that the Peak-alignment method standardized the range of whole brain SUV (marked in FIG. 2) into [−3,3] approximately, regardless of tracer or disease condition, thus allowing universal cutoff for different tracers, while SUVR cutoffs are tracer-dependent (e.g. 1.5 for THK and 1.19 for AV1451). Here, 1.5 is used for SUVP cutoff, representing 1.5 times std from whole brain mode. The positive binding percentage: PBP=(number of positive bring voxels)/(total number of voxels), are computed for both SUVP and SUVR in different brain tissues.
To compare the classification accuracy of AD and NL using mean SUVR and PBP (SUVR and SUVP), the ROC curve was computed and the area under curve (AUC) was computed.
We also computed the diagnostic accuracy in terms of AUC, as specified in Method section. […] The AD-NL ratio obtained using (average PBP of AD group)/(average PBP of NL group).

Entries after “also recorded” stand apart in the source; their conditions may differ.

As to `[18F]c1ccc(-c2ccc3c(c2)[nH]c2ccncc23)cn1` [AV-1451], in the assay with tau [1] (AD patients), the “SUVR, Basal ganglia” value was 1.30(.10); the “SUVR, Cerebral GM” value is given as 1.24(.25)^+; the “SUVR, Cerebral WM” value is given as 1.27(.18); the “SUVR, Frontal cortex” value is 1.18(.23). Also, in the assay with tau [1] (AD patients), the “SUVR, Occipital cortex” value is 1.17(.13); the “SUVR, Parietal cortex” value is given as 1.25(.30); the “SUVR, Temporal cortex” value is given as 1.41(.35)*^+. In the assay on tau [1] (NL subjects), the “SUVR, Basal ganglia” value is 1.30(.09); the “SUVR, Cerebral GM” value is recorded as 1.09(.09); the “SUVR, Cerebral WM” value is reported as 1.18(.09); the “SUVR, Frontal cortex” value is listed as 1.06(.07). Besides, in the assay with tau [1] (NL subjects), the “SUVR, Occipital cortex” value is given as 1.09(.09); the “SUVR, Parietal cortex” value was 1.07(.10); the “SUVR, Temporal cortex” value is 1.18(.16). In the assay with tau [1], the “GMSUVR (Cerebral GM tracer retention)” value is given as 1.15(0.18) and the “WMSUVR (Cerebral WM tracer retention)” value is recorded as 1.21(0.13). In addition, the “AD-NL ratio (R), SUVR Mean” value in the assay on tau [2] was 1.17. Also, in assay [3], the “regions with off-target binding” value was “choroidal plexus and substantia nigra; also recorded: cerebral white matter and basal ganglia region”. Besides, in assay [3] (listed as AV1451), the “regions with off-target binding” value is “cerebellum”. Moreover, in the assay on tau [4], the “AD-NL ratio R = (average PBP of AD group)/(average PBP of NL group), SUVP” value is listed as 4.4004; the “AD-NL ratio R = (average PBP of AD group)/(average PBP of NL group), SUVR” value stood at 1.3258; the “AD-NL ratio (R), SUVP PBP” value was found to be 3.69; the “AD-NL ratio (R), SUVR PBP” value is given as 1.3.

On to `CNc1ccc(-c2ccc3cc(OC[C@H](O)CF)ccc3n2)cn1` [THK5351], for which, in the assay on tau [1] (AD patients), the “SUVR, Basal ganglia” value was 2.62(.26)^; the “SUVR, Cerebral GM” value is on record as 1.55(.16)^+; the “SUVR, Cerebral WM” value is 1.78(.14)^+; the “SUVR, Frontal cortex” value is reported as 1.38(.18). Also, in the assay with tau [1] (AD patients), the “SUVR, Occipital cortex” value was 1.42(.16)^+; the “SUVR, Parietal cortex” value is reported as 1.46(.12); the “SUVR, Temporal cortex” value was 1.88(.22)*^+. In the assay on tau [1] (NL subjects), the “SUVR, Basal ganglia” value is reported as 2.64(.31); the “SUVR, Cerebral GM” value is listed as 1.39(.20); the “SUVR, Cerebral WM” value is on record as 1.56(.20); the “SUVR, Frontal cortex” value is reported as 1.32(.20). For the same compound, in the assay on tau [1] (NL subjects), the “SUVR, Occipital cortex” value is recorded as 1.22(.13); the “SUVR, Parietal cortex” value is recorded as 1.30(.24); the “SUVR, Temporal cortex” value is listed as 1.57(.21). In addition, in the assay on tau [1], the “GMSUVR (Cerebral GM tracer retention)” value is given as 1.47(0.19) and the “WMSUVR (Cerebral WM tracer retention)” value is reported as 1.67(0.20). For the same compound, in the assay with tau [2], the “AD-NL ratio (R), SUVR Mean” value came out at 1.18. For the same compound, the “regions with off-target binding” value in assay [3] was “ponds and Amygdala; also recorded: cerebral white matter and basal ganglia region”. For the same compound, in the assay with tau [4], the “AD-NL ratio R = (average PBP of AD group)/(average PBP of NL group), SUVP” value is on record as 3.1248; the “AD-NL ratio R = (average PBP of AD group)/(average PBP of NL group), SUVR” value came out at 1.2747; the “AD-NL ratio (R), SUVP PBP” value is 2.39; the “AD-NL ratio (R), SUVR PBP” value is 1.25.

The values are drawn from patent US10945685B2, “System and method for normalizing standardized uptake values in brain positron emission tomography (PET) images” (New York University, priority 2018, dated 2021).
